Assays:
[1] = system: human iPS cell-derived myocardial cells; assay: Heart rate of myocardial cells by MEA, serum-free culture medium with isoproterenol and carbachol added; assay type: cell-based; conditions: serum-free culture medium with 1 μmol/L isoproterenol and 3 μmol/L carbachol; cumulative drug concentrations, 20 minutes after addition; vs medium control
Protocol: (§1) Example 4: Method and results of evaluating increase in heart rate by muscarinic receptor inhibitor (atropine) using serum-free culture medium to which adrenergic receptor agonist (isoproterenol) and muscarinic receptor agonist (carbachol) are added Human iPS cell-derived myocardial cells (iCell myocardial cells 2.0, manufactured by FUJIFILM Cellular Dynamics, Inc.) in a frozen state were thawed, suspended in a thawing culture medium (iCell myocardial cell thawing culture medium, manufactured by FUJIFILM Cellular Dynamics, Inc.), and then seeded at a cell density of 50,000 cells per well on a MEA plate (Cyto View MEA 48, manufactured by Axion BioSystems, Inc.). The seeding density of myocardial cells in the vicinity of the electrode was 2,725 cells/mm^2. After the plate was allowed to stand in a CO2 incubator for several hours, a maintenance culture medium (iCell myocardial cell maintenance culture medium, manufactured by FUJIFILM Cellular Dynamics, Inc.) containing serum was added, and the myocardial cells were cultured in the CO2 incubator for about one week. The culture medium was exchanged with a serum-free culture medium (a myocardial cell serum-free assay culture medium, manufactured by FUJIFILM Cellular Dynamics, Inc.) on the day before the measurement.
(§2) On the day of measurement, the MEA plate on which human iPS cell-derived myocardial cells were cultured was placed in an MEA system (Maestro Pro, manufactured by Axion BioSystems, Inc.), 1 μmol/L of isoproterenol (manufactured by Tokyo Chemical Industry Co., Ltd.) and 3 μmol/L of carbachol (manufactured by Tokyo Chemical Industry Co., Ltd.) were added to the culture medium, and then the extracellular potential was measured after 20 minutes from the addition (medium control, atropine concentration: 0 μmol/L). Subsequently, 0.01 μmol/L of atropine (manufactured by Tokyo Chemical Industry Co., Ltd.) was added to the MEA plate, and then the extracellular potential was measured after 20 minutes from the addition. Similarly, atropine was added to give concentrations of 0.1 μmol/L and 1 μmol/L, and then the extracellular potential was measured at each concentration.
From the measurement results of the extracellular potential, the interval between sharp peaks indicating depolarization of human iPS cell-derived myocardial cells was taken as the beating time (sec), and the heart rate (/min)=60/beating time (sec) was calculated. The addition of atropine was confirmed to result in an increase in heart rate of up to 51% (FIG. 7).
In the same manner as in Example 4, evaluation was carried out using an MEA plate on which human iPS cell-derived myocardial cells were cultured. Specifically, the same operations as in Example 4 were carried out except that atropine added in Example 4 was changed to tiotropium (manufactured by Tokyo Chemical Industry Co., Ltd.) and the concentration of tiotropium added was 1 pmol/L, 10 pmol/L, 100 pmol/L, and 1,000 pmol/L.
In the same manner as in Example 4, evaluation was carried out using an MEA plate on which human iPS cell-derived myocardial cells were cultured. Specifically, the same operations as in Example 4 were carried out except that atropine added in Example 4 was changed to glycopyrronium (manufactured by Tokyo Chemical Industry Co., Ltd.) and the concentration of glycopyrronium added was 0.01 nmol/L, 0.1 nmol/L, 1 nmol/L, and 10 nmol/L.
In the same manner as in Example 4, evaluation was carried out using an MEA plate on which human iPS cell-derived myocardial cells were cultured. Specifically, the same operations as in Example 4 were carried out except that the atropine added in Example 4 was changed to propranolol (manufactured by FUJIFILM Wako Pure Chemical Corporation) and the concentration of propranolol added was 0.1 nmol/L, 1 nmol/L, 10 nmol/L, and 100 nmol/L.
In the same manner as in Example 4, evaluation was carried out using an MEA plate on which human iPS cell-derived myocardial cells were cultured. […]

[2] = system: human iPS cell-derived myocardial cells; assay: Heart rate of myocardial cells by MEA, serum-free culture medium with isoproterenol added; assay type: cell-based; conditions: serum-free culture medium with 1 μmol/L isoproterenol; cumulative drug concentrations, 20 minutes after addition; vs medium control
Protocol: as §1, with “1:” for “4:”, “decrease” for “increase”, “agonist (carbachol)” for “inhibitor (atropine)”, “is” for “and muscarinic receptor agonist (carbachol) are”, “2,671” for “2,725”, “The culture medium was exchanged with a serum-free culture medium (a myocardial cell serum-free assay culture medium, manufactured by FUJIFILM Cellular Dynamics, Inc.) on the day before the measurement.” left out
as §2, with “Ltd.) was” for “Ltd.) and 3 μmol/L of carbachol (manufactured by Tokyo Chemical Industry Co., Ltd.) were”, “control, carbachol” for “control, atropine”, “of carbachol” for “of atropine”, “Similarly, carbachol” for “Similarly, atropine”, “0.1 μmol/L, 1 μmol/L,” for “0.1 μmol/L”, “and 10” for “and 1”
From the measurement results of the extracellular potential, the interval between sharp peaks indicating depolarization of human iPS cell-derived myocardial cells was taken as the beating time (sec), and the heart rate (/min)=60/ beating time (sec) was calculated. […]

CN1[C@@H]2CC[C@H]1C[C@@H](OC(=O)C(CO)c1ccccc1)C2 (some centres unmarked) [atropine]
increase in heart rate [1]: up to 51%

C[N+](C)(C)CCOC(N)=O [carbachol]
decrease in heart rate [2]: up to 34%

Source: patent US20250354979A1, “DRUG EVALUATION METHOD, REAGENT, AND KIT” (FUJIFILM Corporation, priority 2023, published 2025)
